Reference: patent publication US20240415914A1, “Water Dispersible Cannabinoid Compositions” (priority 2021, published 2024)

Assay: Stability of cannabinoid and Vitamin E components of Beverage 1 (AB White) stored at 8° C. and 21-25° C., LCMSMS over 570 days
Assay type: physicochemical
Details: for Stability in AB White, 8° C. (content by LCMSMS): beverage stored at 8° C.; for Stability in AB White, 21-25° C. (content by LCMSMS): beverage stored at 21-25° C.
Procedure: The LCMSMS was calibrated for 0-1000 ng/ml cannabinoids with the same resin material used in the preparation of the concentrates. At each time period, 100 ml of beverage was diluted with 10 ml of methanol and injected into the LCMSMS for analysis.

CCCCCc1cc2c(c(O)c1C(=O)O)[C@@H]1C=C(C)CC[C@H]1C(C)(C)O2 [D9 THCA, delta-9-tetrahydrocannabinolic acid]
Stability in AB White, 8° C. (content by LCMSMS) (day 0): 0.950 µg/mL
Stability in AB White, 8° C. (content by LCMSMS) (day 1): 0.956 µg/mL
Stability in AB White, 8° C. (content by LCMSMS) (day 2): 0.954 µg/mL
Stability in AB White, 8° C. (content by LCMSMS) (day 3): 0.934 µg/mL
Stability in AB White, 8° C. (content by LCMSMS) (day 5): 0.956 µg/mL
Stability in AB White, 8° C. (content by LCMSMS) (day 8): 0.949 µg/mL
Stability in AB White, 8° C. (content by LCMSMS) (day 9): 0.937 µg/mL
Stability in AB White, 8° C. (content by LCMSMS) (day 10): 0.960 µg/mL
Stability in AB White, 8° C. (content by LCMSMS) (day 11): 0.929 µg/mL
Stability in AB White, 8° C. (content by LCMSMS) (day 12): 0.942 µg/mL
Stability in AB White, 8° C. (content by LCMSMS) (day 15): 0.944 µg/mL
Stability in AB White, 8° C. (content by LCMSMS) (day 16): 0.932 µg/mL
Stability in AB White, 8° C. (content by LCMSMS) (day 17): 0.951 µg/mL
Stability in AB White, 8° C. (content by LCMSMS) (day 18): 0.950 µg/mL
Stability in AB White, 8° C. (content by LCMSMS) (day 19): 0.959 µg/mL
Stability in AB White, 8° C. (content by LCMSMS) (day 22): 0.960 µg/mL
Stability in AB White, 8° C. (content by LCMSMS) (day 23): 0.931 µg/mL
Stability in AB White, 8° C. (content by LCMSMS) (day 24): 0.926 µg/mL
Stability in AB White, 8° C. (content by LCMSMS) (day 25): 0.957 µg/mL
Stability in AB White, 8° C. (content by LCMSMS) (day 26): 0.956 µg/mL
Stability in AB White, 8° C. (content by LCMSMS) (day 29): 0.939 µg/mL
Stability in AB White, 8° C. (content by LCMSMS) (day 30): 0.955 µg/mL
Stability in AB White, 8° C. (content by LCMSMS) (day 60): 0.914 µg/mL
Stability in AB White, 8° C. (content by LCMSMS) (day 90): 0.948 µg/mL
Stability in AB White, 8° C. (content by LCMSMS) (day 120): 0.932 µg/mL
Stability in AB White, 8° C. (content by LCMSMS) (day 150): 0.952 µg/mL
Stability in AB White, 8° C. (content by LCMSMS) (day 180): 0.941 µg/mL
Stability in AB White, 8° C. (content by LCMSMS) (day 210): 0.923 µg/mL
Stability in AB White, 8° C. (content by LCMSMS) (day 240): 0.932 µg/mL
Stability in AB White, 8° C. (content by LCMSMS) (day 270): 0.933 µg/mL
Stability in AB White, 8° C. (content by LCMSMS) (day 300): 0.939 µg/mL
Stability in AB White, 8° C. (content by LCMSMS) (day 330): 0.909 µg/mL
Stability in AB White, 8° C. (content by LCMSMS) (day 360): 0.913 µg/mL
Stability in AB White, 8° C. (content by LCMSMS) (day 390): 0.923 µg/mL
Stability in AB White, 8° C. (content by LCMSMS) (day 420): 0.916 µg/mL
Stability in AB White, 8° C. (content by LCMSMS) (day 450): 0.923 µg/mL
Stability in AB White, 8° C. (content by LCMSMS) (day 480): 0.905 µg/mL
Stability in AB White, 8° C. (content by LCMSMS) (day 510): 0.873 µg/mL
Stability in AB White, 8° C. (content by LCMSMS) (day 540): 0.877 µg/mL
Stability in AB White, 8° C. (content by LCMSMS) (day 570): 0.872 µg/mL
Stability in AB White, 21-25° C. (content by LCMSMS) (day 0): 0.950 µg/mL
Stability in AB White, 21-25° C. (content by LCMSMS) (day 1): 0.960 µg/mL
Stability in AB White, 21-25° C. (content by LCMSMS) (day 2): 0.938 µg/mL
Stability in AB White, 21-25° C. (content by LCMSMS) (day 3): 0.920 µg/mL
Stability in AB White, 21-25° C. (content by LCMSMS) (day 5): 0.958 µg/mL
Stability in AB White, 21-25° C. (content by LCMSMS) (day 8): 0.937 µg/mL
Stability in AB White, 21-25° C. (content by LCMSMS) (day 9): 0.926 µg/mL
Stability in AB White, 21-25° C. (content by LCMSMS) (day 10): 0.935 µg/mL
Stability in AB White, 21-25° C. (content by LCMSMS) (day 11): 0.949 µg/mL
Stability in AB White, 21-25° C. (content by LCMSMS) (day 12): 0.935 µg/mL
Stability in AB White, 21-25° C. (content by LCMSMS) (day 15): 0.948 µg/mL
Stability in AB White, 21-25° C. (content by LCMSMS) (day 16): 0.921 µg/mL
Stability in AB White, 21-25° C. (content by LCMSMS) (day 17): 0.919 µg/mL
Stability in AB White, 21-25° C. (content by LCMSMS) (day 18): 0.928 µg/mL
Stability in AB White, 21-25° C. (content by LCMSMS) (day 19): 0.917 µg/mL
Stability in AB White, 21-25° C. (content by LCMSMS) (day 22): 0.947 µg/mL
Stability in AB White, 21-25° C. (content by LCMSMS) (day 23): 0.924 µg/mL
Stability in AB White, 21-25° C. (content by LCMSMS) (day 24): 0.927 µg/mL
Stability in AB White, 21-25° C. (content by LCMSMS) (day 25): 0.948 µg/mL
Stability in AB White, 21-25° C. (content by LCMSMS) (day 26): 0.921 µg/mL
Stability in AB White, 21-25° C. (content by LCMSMS) (day 29): 0.922 µg/mL
Stability in AB White, 21-25° C. (content by LCMSMS) (day 30): 0.934 µg/mL
Stability in AB White, 21-25° C. (content by LCMSMS) (day 60): 0.896 µg/mL
Stability in AB White, 21-25° C. (content by LCMSMS) (day 90): 0.892 µg/mL
Stability in AB White, 21-25° C. (content by LCMSMS) (day 120): 0.894 µg/mL
Stability in AB White, 21-25° C. (content by LCMSMS) (day 150): 0.934 µg/mL
Stability in AB White, 21-25° C. (content by LCMSMS) (day 180): 0.945 µg/mL
Stability in AB White, 21-25° C. (content by LCMSMS) (day 210): 0.913 µg/mL
Stability in AB White, 21-25° C. (content by LCMSMS) (day 240): 0.892 µg/mL
Stability in AB White, 21-25° C. (content by LCMSMS) (day 270): 0.905 µg/mL
Stability in AB White, 21-25° C. (content by LCMSMS) (day 300): 0.888 µg/mL
Stability in AB White, 21-25° C. (content by LCMSMS) (day 330): 0.894 µg/mL
Stability in AB White, 21-25° C. (content by LCMSMS) (day 360): 0.925 µg/mL
Stability in AB White, 21-25° C. (content by LCMSMS) (day 390): 0.907 µg/mL
Stability in AB White, 21-25° C. (content by LCMSMS) (day 420): 0.909 µg/mL
Stability in AB White, 21-25° C. (content by LCMSMS) (day 450): 0.921 µg/mL
Stability in AB White, 21-25° C. (content by LCMSMS) (day 480): 0.873 µg/mL
Stability in AB White, 21-25° C. (content by LCMSMS) (day 510): 0.903 µg/mL
Stability in AB White, 21-25° C. (content by LCMSMS) (day 540): 0.877 µg/mL
Stability in AB White, 21-25° C. (content by LCMSMS) (day 570): 0.877 µg/mL
